Assay: Stability study on storage (polymorphic conversion followed by XRD)
Assay type: physicochemical
Method: A first aspect of the present invention provides stable polymorphic Form I of ritonavir having no tendency to convert to any other polymorphic form. […] The X-Ray powdered Diffraction (XRPD) pattern of stable Form I of ritonavir is provided in FIGS. 1a and 2a of the drawing.
(XRD pattern of the title compound stored at 25° C. after 3 months is depicted in FIG. 3).

stability of polymorphic form upon storage (prepared as per prior art process, tendency to convert to other forms, especially Form II)	Structure (SMILES)	conversion in the polymorphic form on storage (stored at 25° C. for 3 months, XRD pattern (FIG. 3))
–	CC(C)c1nc(CN(C)C(=O)N[C@H](C(=O)N[C@@H](Cc2ccccc2)C[C@H](O)[C@H](Cc2ccccc2)NC(=O)OCc2cncs2)C(C)C)cs1 (relative stereo) [Example 2, [5S-(5R*,8R*,10R*,11R*)]-10-Hydroxy-2-methyl-5-(1-methylethyl)-1-[2-(1-methylethyl)-4-thiazolyl]-3,6-dioxo-8,11-bis(phenylmethyl)-2,4,7,12-tetraazamidecan-13-oic acid, 5-thiazolylmethyl ester]	no conversion in the polymorphic form was observed
not stable	CC(C)c1nc(CN(C)C(=O)N[C@H](C(=O)N[C@@H](Cc2ccccc2)C[C@H](O)[C@H](Cc2ccccc2)NC(=O)OCc2cncs2)C(C)C)cs1 (single isomer, unassigned) [Form I of ritonavir, [5S-(5R*,8R*,10R*,11R*)]-10-Hydroxy-2-methyl-5-(1-methylethyl)-1-[2-(1-methylethyl)-4-thiazolyl]-3,6-dioxo-8,11-bis(phenylmethyl)-2,4,7,12-tetraazamidecan-13-oic acid, 5-thiazolylmethyl ester]	–

Reference: patent publication US20080312300A1, “Processes for the Preparation of Stable Polymorphic Form I of Ritonavir” (priority 2005, published 2008)
